Assay results from patent US7517902B2, “Substituted indazoles, compositions containing the same, and the preparation and use thereof” (Aventis Pharma S.A., priority 2004, dated 2009).

Assays:
human KDR enzyme = molecular target: T1, human KDR enzyme (Homo sapiens, UniProt P35968); assay: KDR substrate phosphorylation assay (scintillation, 96-well plate); assay type: biochemical
T1 construct: The cytoplasmic domain of the human KDR enzyme was cloned in the form of a GST fusion; GST; made in house; host or cells: SF21 insect cells (baculovirus, pFastBac)
Method: The inhibitory effect of the compounds is determined in an assay of substrate phosphorylation by the KDR enzyme in vitro using a scintillation technique (96-well plate, NEN).
The cytoplasmic domain of the human KDR enzyme was cloned in the form of a GST fusion into the baculovirus expression vector pFastBac. The protein was expressed in SF21 cells and purified to approximately 60% homogeneity.
The KDR kinase activity is measured in 20 mM MOPS, 10 mM MgCl2, 10 mM MnCl2, 1 mM DTT, 2.5 mM EGTA, 10 mM β-glycerophosphate, pH=7.2, in the presence of 10 mM MgCl2, 100 μM Na3VO4, 1 mM NaF. 10 μl of the compound are added to 70 μl of kinase buffer, containing 100 ng of KDR enzyme at 4° C. The reaction is triggered by adding 20 μl of solution containing 2 μg of substrate (SH2-SH3 fragment of PLCγ expressed in the form of a GST fusion protein), 2 μCi γ^33P[ATP] and 2 μM cold ATP. After 1 hour of incubation at 37° C., the reaction is stopped by adding 1 volume (100 μl) of 200 mM EDTA. The incubation buffer is withdrawn and the wells are washed three times with 300 μl of PBS. The radioactivity is measured in each well using a Top Count NXT radioactivity counter (Packard).
The background noise is determined by measuring the radioactivity in four different wells containing the radioactive ATP and the substrate alone.
A control for total activity is measured in four different wells containing all of the reagents (γ^33P-[ATP], KDR and PLCγ substrate), but in the absence of compound.
The inhibition of KDR activity with the compound of the invention is expressed in percentage inhibition of the control activity determined in the absence of compound.
The compound SU5614 (Calbiochem) (1 μM) is included in each plate as an inhibition control.

Aurora2 = molecular target: T2, Aurora2 (Homo sapiens, UniProt O14965); assay: Aurora2 enzyme assay, NuMA substrate phosphorylation (Flashplate); assay type: biochemical; conditions: read-out: IC 50 Aurora2
T2 construct: Aurora 2: whole recombinant protein comprising an N-terminal histidine tail; His tag (histidine tail) (N); made in house; host or cells: E. coli
T2 sequence (O14965 1-403): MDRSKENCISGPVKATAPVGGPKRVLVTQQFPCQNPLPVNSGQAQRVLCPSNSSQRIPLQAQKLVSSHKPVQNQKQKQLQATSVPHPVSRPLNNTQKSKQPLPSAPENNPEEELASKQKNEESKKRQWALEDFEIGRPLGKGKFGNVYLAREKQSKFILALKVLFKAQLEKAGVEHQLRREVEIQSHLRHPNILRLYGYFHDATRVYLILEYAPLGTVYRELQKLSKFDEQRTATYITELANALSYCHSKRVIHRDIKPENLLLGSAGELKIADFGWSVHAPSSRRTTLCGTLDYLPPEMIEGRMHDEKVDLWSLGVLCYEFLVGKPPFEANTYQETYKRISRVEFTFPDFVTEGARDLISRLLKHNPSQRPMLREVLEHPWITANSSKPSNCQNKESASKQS
Method: The inhibitory effect of compounds with respect to the kinases Aurora1 and Aurora2 is determined by an enzyme assay employing radioactivity detection.
The kinase activity of Aurora 1 and Aurora 2 is evaluated by the phosphorylation of the substrate Numa-histidine in the presence of radiolabeled ATP ([^33P]ATP), using 96-well Flashplate plates in which nickel chelate is fixed to the surface of the microplate. The amount of ^33P phosphate incorporated in the NuMA substrate is proportional to the activity of the enzyme Aurora1 or Aurora2.
The proteins are produced in the protein production laboratory of the SanofiAventis group.
Aurora 2: whole recombinant protein comprising an N-terminal histidine tail, expressed in E. coli and purified to more than 82%.
NuMA (nuclear protein that associates with the mitotic apparatus) fragment of 424 amino acids, expressed in E. coli, whose N-terminal end has been labeled with histidine and used as a substrate for the two Aurora enzymes.
The microplates used are 96-well Flash-Plate plates with nickel chelate (Perkin Elmer, model SMP107).
The products for evaluation are incubated in a reaction volume of 100 μL per well in the presence of 10 nM of Aurora 1 or Aurora 2, 500 nM of NuMA substrate in a buffer composed of 50 mM of Tris/HCl (pH 7.5), 50 mM NaCl, 5 mM MgCl2 (Aurora-B) or 10 mM MgCl2 (Aurora-A) and 1 mM of DTT, at 37° C.
In each well, 80 μL of the enzyme/substrate incubation buffer are distributed, followed by 10 μL of the product to be evaluated, in variable concentrations. The reaction is initiated by adding 1 μM of final ATP containing 0.2 μCi of [^33P]ATP (10 μL). After 30 minutes of incubation, the reaction is terminated by simply removing the reaction buffer and each well is washed twice with 300 μl of the Tris/HCl buffer. The radioactivity is then measured in each well by means of a scintillation apparatus, Packard, Top count model.
The control enzyme activity of Aurora is expressed by the number of counts per minute obtained within 30 minutes, after deduction of the background noise (reaction mixture not containing the enzyme). The evaluation of the various test products is expressed in percentage inhibition of the Aurora activity relative to the control.

human Tie2 = molecular target: T3, human Tie2 (Homo sapiens, UniProt Q02763); assay: Tie2 assay of PLC phosphorylation (FlashPlate); assay type: biochemical; conditions: read-out: IC 50 TIE2
T3 construct: amino acids of the intracellular domain 776-1124; made in house
Method: The coding sequence of human Tie2, corresponding to the amino acids of the intracellular domain 776-1124, was generated by PCR, using the cDNA isolated from human placenta as a model. This sequence was introduced into a baculovirus expression vector pFastBacGT in the form of a GST fusion protein.
The inhibitory effect of the molecules is determined in an assay of PLC phosphorylation by Tie2 in the presence of GST-Tie2 purified to approximately 80% homogeneity. The substrate is composed of the SH2-SH3 fragments of PLC expressed in the form of a GST fusion protein.
The kinase activity of Tie2 is measured in a 20 mM MOPS buffer, pH 7.2, containing 10 mM MgCl2, 10 mM MnCl2, 1 mM DTT, 10 mM of glycerol-phosphate. In a 96-well FlashPlate plate, kept on ice, a reaction mixture is deposited which is composed of 70 μl of kinase buffer containing 100 ng of GST-Tie2 enzyme per well. Subsequently 10 μl of the test molecule diluted to a concentration of 10% maximum in DMvSO are added. For a given concentration, each measurement is carried out in quadruplicate. The reaction is initiated by adding 20 μl of solution containing 2 μg of GST-PLC, 2 μM of cold ATP and 1 μCi of ^33P[ATP]. After 1 hour of incubation at 37° C., the reaction is terminated by adding 1 volume (100 μl) of 200 mM EDTA. Following removal of the incubation buffer, the wells are washed three times with 300 μl of PBS. The radioactivity is measured on a Wallac MicroBeta 1450.
The inhibition of Tie2 activity is calculated and expressed as a percentage inhibition relative to the control activity determined in the absence of compound.

T3 sequence (Q02763 776-1124): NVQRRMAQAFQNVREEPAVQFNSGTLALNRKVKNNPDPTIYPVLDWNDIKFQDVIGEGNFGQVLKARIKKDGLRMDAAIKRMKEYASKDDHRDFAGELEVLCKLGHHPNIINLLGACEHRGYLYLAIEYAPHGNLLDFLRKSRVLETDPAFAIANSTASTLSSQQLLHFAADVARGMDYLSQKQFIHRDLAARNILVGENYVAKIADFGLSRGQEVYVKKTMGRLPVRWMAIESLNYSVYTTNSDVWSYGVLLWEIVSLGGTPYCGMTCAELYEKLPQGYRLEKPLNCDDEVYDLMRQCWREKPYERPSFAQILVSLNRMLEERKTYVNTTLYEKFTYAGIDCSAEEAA
T1 sequence (P35968 786-1356 limits assumed): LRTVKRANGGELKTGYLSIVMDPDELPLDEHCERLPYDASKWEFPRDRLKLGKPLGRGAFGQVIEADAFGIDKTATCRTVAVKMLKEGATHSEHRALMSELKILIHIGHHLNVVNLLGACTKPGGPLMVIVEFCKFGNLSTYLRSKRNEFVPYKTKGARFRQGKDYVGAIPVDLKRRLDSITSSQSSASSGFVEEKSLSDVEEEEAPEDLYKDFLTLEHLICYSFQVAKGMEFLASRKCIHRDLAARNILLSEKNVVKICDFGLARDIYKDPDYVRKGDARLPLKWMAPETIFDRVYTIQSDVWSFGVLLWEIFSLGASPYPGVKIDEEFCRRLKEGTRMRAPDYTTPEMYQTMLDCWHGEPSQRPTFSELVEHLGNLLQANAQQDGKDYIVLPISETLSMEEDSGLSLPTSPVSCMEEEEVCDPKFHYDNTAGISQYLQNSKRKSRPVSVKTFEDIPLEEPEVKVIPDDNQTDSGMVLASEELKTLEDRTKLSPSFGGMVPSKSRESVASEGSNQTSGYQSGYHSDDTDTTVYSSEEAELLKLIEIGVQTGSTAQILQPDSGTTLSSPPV

Row | SMILES | IC50 (human KDR enzyme) | IC50 (Aurora2) | IC50 (human Tie2) | melting point
1 | O=C(Nc1ccc(-c2ccc3c(NC(=O)c4ccccc4)n[nH]c3c2F)cc1)Nc1cc(C(F)(F)F)ccc1F [Example 18, 1-(4-{7-Fluoro-3-[phenylcarbonylamino]-1H-indazol-6-yl}phenyl)-3-(2-fluoro-5-trifluoromethylphenyl)urea] | 77 nM | 346 nM | 26 nM | 206 to 207 °C
2 | O=C(Nc1ccc(-c2ccc3c(NC(=O)c4ccco4)n[nH]c3c2F)cc1)Nc1cc(C(F)(F)F)ccc1F [Example 17, 1-(4-{7-Fluoro-3-[(furan-2-yl)carbonylamino]-1H-indazol-6-yl}phenyl)-3-(2-fluoro-5-trifluoromethylphenyl)urea] | 29 nM | 60 nM | 8 nM | 152 to 153 °C
